One assay has as its system C. krusei ATCC 6258. Description: Anti-Fungal Activity Assay (broth microtiter MIC), C. krusei. The format is cell-based, Candida krusei. Particulars: 3 replicates, MIC recorded at 48 h; for MIC: Pichia kudriavzevii, ATCC6258, 48 h, read-out: MIC C. krusei ATCC 6258. A digest of the protocol:
(§1)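 Candida strains were grown from frozen stock on Sabouraud dextrose agar overnight at 35° C, then suspended directly in RPMI 1640+MOPS and quantified against standard curves. Broth microdilution MIC plates followed CLSI M27-A3; MICs were read visually against growth control at 48 h, with a 24 h read added for soraphen.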

The target in a further assay is Human ACC2 (Homo sapiens, UniProt O00763). Description: In vitro ACC2 inhibition assay (ADP-Glo), human ACC2. The assay is classed as biochemical. As to conditions: 5 nM ACC2, 20 μM ATP, 20 μM acetyl-CoA. For orientation: ADP-Glo first removes unused ATP, then detects ADP through luciferase.
The next assay relates to C. albicans ATCC 90028. Description: Anti-Fungal Activity Assay (broth microtiter MIC), C. albicans. The format is cell-based, Candida albicans. As to conditions: 3 replicates, MIC recorded at 48 h; for MIC: Candida albicans, ATCC90028, 48 h, read-out: MIC C. albicans ATCC 90028. Put shortly: as §1
The next assay concerns the target Fungal ACC2 (UniProt Q00955). As to conditions: read-out: Fungal ACC2 (IC50, in vitro ACC2 inhibition).
Assay [1] concerns C. parapsilosis ATCC 22019. Kind of assay: Anti-Fungal Activity Assay (broth microtiter MIC), C. parapsilosis. The format is cell-based, Candida parapsilosis. As to conditions: 3 replicates, MIC recorded at 48 h; for MIC: Lodderomyces parapsilosis, ATCC22019, 48 h, read-out: MIC C. parapsilosis ATCC 22019. A digest of the protocol:
as §1

Results on 16 compounds are retold here after patent publication US20190330224A1, “ACC INHIBITORS AND USES THEREOF” (Gilead Apollo, LLC, priority 2015, published 2019).

≈ marks a conversion by molar mass, not a printed value.

Fungal ACC2, sequence (Q00955 whole entry): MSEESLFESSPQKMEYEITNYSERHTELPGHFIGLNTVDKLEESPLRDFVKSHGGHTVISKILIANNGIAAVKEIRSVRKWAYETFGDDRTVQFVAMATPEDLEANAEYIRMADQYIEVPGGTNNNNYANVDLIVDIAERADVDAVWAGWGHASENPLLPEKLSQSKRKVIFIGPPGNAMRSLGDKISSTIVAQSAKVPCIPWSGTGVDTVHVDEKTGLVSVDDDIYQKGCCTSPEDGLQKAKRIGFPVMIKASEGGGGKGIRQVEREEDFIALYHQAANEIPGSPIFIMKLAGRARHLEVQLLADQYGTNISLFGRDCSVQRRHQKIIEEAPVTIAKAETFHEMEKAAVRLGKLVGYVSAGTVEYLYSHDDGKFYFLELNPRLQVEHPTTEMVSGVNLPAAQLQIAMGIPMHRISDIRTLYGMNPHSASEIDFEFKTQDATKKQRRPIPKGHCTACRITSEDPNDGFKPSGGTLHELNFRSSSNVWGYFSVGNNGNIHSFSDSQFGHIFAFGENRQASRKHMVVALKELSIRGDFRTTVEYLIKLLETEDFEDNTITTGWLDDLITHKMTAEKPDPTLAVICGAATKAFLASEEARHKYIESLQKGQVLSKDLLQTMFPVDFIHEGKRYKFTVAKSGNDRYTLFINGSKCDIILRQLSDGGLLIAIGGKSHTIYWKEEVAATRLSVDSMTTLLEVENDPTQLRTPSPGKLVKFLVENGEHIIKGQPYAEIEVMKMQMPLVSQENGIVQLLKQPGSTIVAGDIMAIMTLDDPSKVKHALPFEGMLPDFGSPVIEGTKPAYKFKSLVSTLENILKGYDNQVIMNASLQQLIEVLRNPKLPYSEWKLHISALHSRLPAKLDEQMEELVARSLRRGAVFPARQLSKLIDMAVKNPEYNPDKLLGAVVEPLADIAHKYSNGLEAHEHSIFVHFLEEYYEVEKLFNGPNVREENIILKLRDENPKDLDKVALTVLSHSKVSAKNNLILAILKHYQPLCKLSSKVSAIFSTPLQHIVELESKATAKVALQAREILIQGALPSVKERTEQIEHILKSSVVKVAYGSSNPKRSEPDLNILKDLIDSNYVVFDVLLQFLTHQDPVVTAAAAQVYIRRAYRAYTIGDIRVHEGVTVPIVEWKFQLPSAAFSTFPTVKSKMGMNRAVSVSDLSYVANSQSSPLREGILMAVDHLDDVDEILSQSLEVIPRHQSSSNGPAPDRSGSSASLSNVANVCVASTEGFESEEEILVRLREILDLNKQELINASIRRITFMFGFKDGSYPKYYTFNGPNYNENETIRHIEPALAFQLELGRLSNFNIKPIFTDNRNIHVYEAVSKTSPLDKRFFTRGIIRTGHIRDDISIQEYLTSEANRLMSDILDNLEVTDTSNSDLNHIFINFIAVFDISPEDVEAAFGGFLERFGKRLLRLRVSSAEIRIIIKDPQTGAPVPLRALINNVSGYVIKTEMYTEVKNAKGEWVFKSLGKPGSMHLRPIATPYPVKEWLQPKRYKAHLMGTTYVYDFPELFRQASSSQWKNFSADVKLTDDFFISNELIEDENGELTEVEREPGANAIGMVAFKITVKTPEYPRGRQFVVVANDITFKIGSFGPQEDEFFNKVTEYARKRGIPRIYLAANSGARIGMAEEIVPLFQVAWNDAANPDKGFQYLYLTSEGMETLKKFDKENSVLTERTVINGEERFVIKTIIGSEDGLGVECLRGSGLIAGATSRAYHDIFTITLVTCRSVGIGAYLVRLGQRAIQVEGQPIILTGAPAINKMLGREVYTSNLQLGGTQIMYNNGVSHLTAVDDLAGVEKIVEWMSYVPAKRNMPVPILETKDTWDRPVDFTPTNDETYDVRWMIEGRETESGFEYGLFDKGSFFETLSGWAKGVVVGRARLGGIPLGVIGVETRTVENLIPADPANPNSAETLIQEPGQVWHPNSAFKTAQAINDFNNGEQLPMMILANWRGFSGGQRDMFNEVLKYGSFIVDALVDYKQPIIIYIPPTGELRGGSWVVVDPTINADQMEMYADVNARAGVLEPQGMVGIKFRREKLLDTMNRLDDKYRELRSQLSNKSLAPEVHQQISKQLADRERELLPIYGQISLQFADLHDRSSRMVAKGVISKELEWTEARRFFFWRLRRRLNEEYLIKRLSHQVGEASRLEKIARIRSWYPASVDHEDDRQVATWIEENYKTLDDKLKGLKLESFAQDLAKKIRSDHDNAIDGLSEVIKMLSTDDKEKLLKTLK
Human ACC2, sequence (O00763 whole entry): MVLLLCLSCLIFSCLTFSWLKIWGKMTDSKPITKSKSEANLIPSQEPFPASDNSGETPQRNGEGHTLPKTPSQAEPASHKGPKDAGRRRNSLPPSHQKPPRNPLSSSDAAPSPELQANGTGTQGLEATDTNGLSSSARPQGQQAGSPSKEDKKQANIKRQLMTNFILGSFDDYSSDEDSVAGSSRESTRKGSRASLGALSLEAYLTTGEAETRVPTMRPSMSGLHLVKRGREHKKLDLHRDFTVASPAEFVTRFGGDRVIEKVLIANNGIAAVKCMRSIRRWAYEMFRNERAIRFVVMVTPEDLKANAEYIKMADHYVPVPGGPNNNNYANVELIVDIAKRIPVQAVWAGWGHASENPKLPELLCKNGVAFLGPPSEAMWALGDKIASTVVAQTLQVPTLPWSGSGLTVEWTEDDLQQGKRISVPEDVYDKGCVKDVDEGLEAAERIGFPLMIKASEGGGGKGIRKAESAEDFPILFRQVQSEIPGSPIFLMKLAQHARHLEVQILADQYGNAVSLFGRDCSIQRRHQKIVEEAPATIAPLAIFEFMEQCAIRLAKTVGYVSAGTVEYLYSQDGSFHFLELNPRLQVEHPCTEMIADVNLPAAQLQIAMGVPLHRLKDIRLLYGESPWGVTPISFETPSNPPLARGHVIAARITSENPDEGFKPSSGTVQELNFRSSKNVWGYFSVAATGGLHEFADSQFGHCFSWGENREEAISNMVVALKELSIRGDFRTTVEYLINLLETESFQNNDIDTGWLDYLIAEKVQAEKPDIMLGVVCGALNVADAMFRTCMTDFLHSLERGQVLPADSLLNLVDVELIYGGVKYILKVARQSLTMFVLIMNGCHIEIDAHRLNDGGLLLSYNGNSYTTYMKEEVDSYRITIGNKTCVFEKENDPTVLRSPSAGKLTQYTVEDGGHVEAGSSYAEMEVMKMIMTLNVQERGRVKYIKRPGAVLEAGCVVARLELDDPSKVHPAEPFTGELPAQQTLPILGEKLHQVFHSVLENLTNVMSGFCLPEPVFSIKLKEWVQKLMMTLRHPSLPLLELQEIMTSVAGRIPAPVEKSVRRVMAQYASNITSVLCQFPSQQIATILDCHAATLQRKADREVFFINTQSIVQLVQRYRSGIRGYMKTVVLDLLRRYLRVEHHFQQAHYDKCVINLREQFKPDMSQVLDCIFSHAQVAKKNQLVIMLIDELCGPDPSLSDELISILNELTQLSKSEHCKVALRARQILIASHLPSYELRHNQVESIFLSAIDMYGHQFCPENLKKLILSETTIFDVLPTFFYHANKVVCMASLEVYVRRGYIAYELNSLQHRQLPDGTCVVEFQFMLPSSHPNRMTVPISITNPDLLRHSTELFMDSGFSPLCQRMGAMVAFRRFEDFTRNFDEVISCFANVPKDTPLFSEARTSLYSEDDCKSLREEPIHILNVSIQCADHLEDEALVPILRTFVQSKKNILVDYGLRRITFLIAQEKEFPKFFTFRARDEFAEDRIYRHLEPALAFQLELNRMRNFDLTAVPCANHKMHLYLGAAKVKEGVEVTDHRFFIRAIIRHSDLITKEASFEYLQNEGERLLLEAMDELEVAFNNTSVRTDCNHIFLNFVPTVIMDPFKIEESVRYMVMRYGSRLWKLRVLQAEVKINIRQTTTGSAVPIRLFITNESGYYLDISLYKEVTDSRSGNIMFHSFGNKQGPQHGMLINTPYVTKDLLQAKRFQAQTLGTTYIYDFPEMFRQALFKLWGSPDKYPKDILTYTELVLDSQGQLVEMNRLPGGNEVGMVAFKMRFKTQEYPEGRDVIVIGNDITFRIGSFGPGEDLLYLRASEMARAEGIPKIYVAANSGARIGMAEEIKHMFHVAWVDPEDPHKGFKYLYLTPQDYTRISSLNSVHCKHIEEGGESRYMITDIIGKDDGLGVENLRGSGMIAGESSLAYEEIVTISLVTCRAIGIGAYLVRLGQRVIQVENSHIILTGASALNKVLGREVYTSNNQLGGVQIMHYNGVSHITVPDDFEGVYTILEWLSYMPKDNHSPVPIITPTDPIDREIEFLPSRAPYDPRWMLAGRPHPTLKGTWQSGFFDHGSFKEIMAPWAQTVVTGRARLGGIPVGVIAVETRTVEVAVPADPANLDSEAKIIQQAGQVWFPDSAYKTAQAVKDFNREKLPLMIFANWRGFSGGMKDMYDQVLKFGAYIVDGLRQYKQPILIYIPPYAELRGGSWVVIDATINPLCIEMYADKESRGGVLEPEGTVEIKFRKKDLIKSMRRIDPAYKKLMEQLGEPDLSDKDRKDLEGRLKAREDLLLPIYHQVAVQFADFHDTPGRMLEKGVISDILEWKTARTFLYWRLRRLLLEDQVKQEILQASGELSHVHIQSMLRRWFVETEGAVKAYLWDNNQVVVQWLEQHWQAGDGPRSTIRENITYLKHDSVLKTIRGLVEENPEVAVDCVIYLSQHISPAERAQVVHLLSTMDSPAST

As to `COc1ccccc1[C@H](Cn1c(=O)n([C@H]2CCN(C)C2=O)c(=O)c2c(C)c(-n3nccn3)sc21)OC` [Compound I-171, 1-((R)-2-methoxy-2-(2-methoxyphenyl)ethyl)-5-methyl-3-((S)-1-methyl-2-oxopyrrolidin-3-yl)-6-(2H-1,2,3-triazol-2-yl)thieno[2,3-d]pyrimidine-2,4(1H,3H)-dione], the minimal inhibitory concentration (MIC) (in the assay on C. krusei ATCC 6258; in the assay with C. albicans ATCC 90028; in assay [1]) was 2.1 to 4 µg/mL (≈ 4.11 to 7.83 µM) in each case. The IC50 was in the range of 10 to 100 nM at Human ACC2 and 2 to 10 nM at Fungal ACC2.
Turning to `COc1ccc(F)cc1[C@H](Cn1c(=O)n([C@H]2CCN(C)C2=O)c(=O)c2c(C)c(-n3cccn3)sc21)OCCC(=O)O` [Compound I-180, 3-((R)-1-(5-fluoro-2-methoxyphenyl)-2-(5-methyl-3-((S)-1-methyl-2-oxopyrrolidin-3-yl)-2,4-dioxo-6-(1H-pyrazol-1-yl)-3,4-dihydrothieno[2,3-d]pyrimidin-1(2H)-yl)ethoxy)propanoic acid], the MIC (with C. krusei ATCC 6258; in the assay on C. albicans ATCC 90028; in assay [1]) was 2.1 to 4 µg/mL (≈ 3.59 to 6.83 µM) in each case. For the same compound, the IC50 on Human ACC2 is 100 to 1000 nM; at Fungal ACC2, 10 to 100 nM.
As for `COc1ccc(F)cc1[C@H](Cn1c(=O)n([C@H]2CCCNC2=O)c(=O)c2c(C)c(-n3nccn3)sc21)OCCC(=O)O` [Compound I-177, 3-((R)-1-(5-fluoro-2-methoxyphenyl)-2-(5-methyl-2,4-dioxo-3-((S)-2-oxopiperidin-3-yl)-6-(2H-1,2,3-triazol-2-yl)-3,4-dihydrothieno[2,3-d]pyrimidin-1 (2H)-yl)ethoxy)propanoic acid], the MIC (with C. krusei ATCC 6258; in the assay with C. albicans ATCC 90028; in assay [1]) was 2.1 to 4 µg/mL (≈ 3.58 to 6.82 µM) throughout. Besides, the figures for the IC50 at Human ACC2 and on Fungal ACC2 were 10 to 100 nM and 2 to 10 nM, respectively.
For the compound `COc1ccc(F)cc1[C@H](Cn1c(=O)n([C@H]2CC(=O)N(C)C2)c(=O)c2c(C)c(-n3nccn3)sc21)OCCO` [Compound I-95, 1-((R)-2-(5-fluoro-2-methoxyphenyl)-2-(2-hydroxy-ethoxy)ethyl)-5-methyl-3-((S)-1-methyl-5-oxopyrrolidin-3-yl)-6-(2H-1,2,3-triazol-2-yl)thieno[2,3-d]pyrimidine-2,4(1H,3H)-dione], the MIC (in the assay on C. krusei ATCC 6258; in the assay on C. albicans ATCC 90028; in assay [1]) was 2.1 to 4 µg/mL (≈ 3.76 to 7.16 µM) throughout. In addition, the IC50 on Human ACC2 and on Fungal ACC2 was 2 to 10 nM each time.
For `COCCO[C@@H](Cn1c(=O)n(C2CCCN(C(C)C)C2=O)c(=O)c2c(C)c(-n3nccn3)sc21)c1cc(F)ccc1OC` (stereo partly drawn) [Compound I-16, 1-((R)-2-(5-fluoro-2-methoxyphenyl)-2-(2-methoxy-ethoxy)ethyl)-3-(1-isopropyl-2-oxopiperidin-3-yl)-5-methyl-6-(2H-1,2,3-triazol-2-yl)thieno[2,3-d]pyrimidine-2,4(1H,3H)-dione], the MIC (in the assay with C. krusei ATCC 6258; with C. albicans ATCC 90028; in assay [1]) was 2.1 to 4 µg/mL (≈ 3.42 to 6.51 µM) in each case. Further, the IC50 at Human ACC2 lay in the range of 100 to 1000 nM; at Fungal ACC2 it was 2 to 10 nM.
`COCCO[C@@H](Cn1c(=O)n([C@@H]2CCN(C(=O)C(C)C)C2)c(=O)c2c(C)c(-n3nccn3)sc21)c1cc(F)ccc1OC` [Compound I-86, 1-((R)-2-(5-fluoro-2-methoxyphenyl)-2-(2-methoxy-ethoxy)ethyl)-3-((R)-1-isobutyrylpyrrolidine-3-yl)-5-methyl-6-(2H-1,2,3-triazol-2-yl)thieno[2,3-d]pyrimidine-2,4(1H,3H)-dione]: the MIC (with C. krusei ATCC 6258; in the assay on C. albicans ATCC 90028; in assay [1]) was 2.1 to 4 µg/mL (≈ 3.42 to 6.51 µM) each time. Besides, the IC50 on Human ACC2 fell in the range of 10 to 100 nM; at Fungal ACC2, 0.7 to 2 nM.
`COc1ccc(F)cc1[C@H](Cn1c(=O)n([C@@]2(C)CC(=O)N(C)C2)c(=O)c2c(C)c(-n3nccn3)sc21)OCCO` [Compound I-123, 3-((S)-1,3-dimethyl-5-oxopyrrolidin-3-yl)-1-((R)-2-(5-fluoro-2-methoxyphenyl)-2-(2-hydroxyethoxy)ethyl)-5-methyl-6-(2H-1,2,3-triazol-2-yl)thieno[2,3-d]pyrimidine-2,4(1H,3H)-dione]: the MIC (in the assay on C. krusei ATCC 6258; in the assay with C. albicans ATCC 90028; in assay [1]) was 2.1 to 4 µg/mL (≈ 3.67 to 6.99 µM) throughout. Further, the IC50 at Human ACC2 lay within 10 to 100 nM; at Fungal ACC2, 0.7 to 2 nM.
As to `COc1ccccc1[C@H](Cn1c(=O)n(C2CCNC2=O)c(=O)c2c(C)c(-c3ncco3)sc21)OCCO` (stereo partly drawn) [Compound I-53, 1-((R)-2-(2-hydroxyethoxy)-2-(2-methoxyphenyl)ethyl)-5-methyl-6-(oxazol-2-yl)-3-(2-oxopyrrolidin-3-yl)thieno[2,3-d]pyrimidine-2,4(1H,3H)-dione], the MIC (in the assay with C. krusei ATCC 6258; with C. albicans ATCC 90028; in assay [1]) was 2.1 to 4 µg/mL (≈ 3.99 to 7.6 µM) each time. In addition, the half-inhibitory concentration (IC50) on Human ACC2 and on Fungal ACC2 was 10 to 100 nM in each case.
As for `COc1ccc(F)cc1C(=O)Cn1c(=O)n(C2CCN(C)C2=O)c(=O)c2c(C)c(-n3nccn3)sc21` (stereo in doubt) [Compound I-162, (R)-1-(2-(5-fluoro-2-methoxyphenyl)-2-oxoethyl)-5-methyl-3-(1-methyl-2-oxopyrrolidin-3-yl)-6-(2H-1,2,3-triazol-2-yl)thieno[2,3-d]pyrimidine-2,4(1H,3H)-dione], in the assay with C. krusei ATCC 6258, the “MIC C. krusei ATCC 6258” value is recorded as “C (provided an MIC of 2.1-4.0 μg/mL)”. Further, the IC50 against Human ACC2 is 100 to 1000 nM; at Fungal ACC2, 10 to 100 nM. Also, the “MIC C. albicans ATCC 90028” value in the assay on C. albicans ATCC 90028 is recorded as “C (provided an MIC of 2.1-4.0 μg/mL)”. For the same compound, in assay [1], the “MIC C. parapsilosis ATCC 22019” value is “C (provided an MIC of 2.1-4.0 μg/mL)”.
With `COc1ccc(F)cc1[C@H](Cn1c(=O)n([C@@H]2CCN(C)C2=O)c(=O)c2c(C)c(-n3nccn3)sc21)O[C@H]1C[C@H](O)C1` [Compound I-185, 1-((R)-2-(5-fluoro-2-methoxyphenyl)-2-((1r,3R)-3-hydroxycyclobutoxy)ethyl)-5-methyl-3-((R)-1-methyl-2-oxopyrrolidin-3-yl)-6-(2H-1,2,3-triazol-2-yl)thieno[2,3-d]pyrimidine-2,4(1H,3H)-dione], the IC50 against Human ACC2 lay in the range of 2 to 10 nM; at Fungal ACC2, 0.7 to 2 nM.
The like results for `COCCO[C@@H](Cn1c(=O)n([C@@]2(C)CCN(C)C2=O)c(=O)c2c(C)c(-n3nccn3)sc21)c1cc(F)ccc1OC` [Compound I-148, 3-((S)-1,3-dimethyl-2-oxopyrrolidin-3-yl)-1-((R)-2-(5-fluoro-2-methoxyphenyl)-2-(2-methoxyethoxy)ethyl)-5-methyl-6-(2H-1,2,3-triazol-2-yl)thieno[2,3-d]pyrimidine-24(1H,3H)-dione] were, in that order, above 1000 nM and above 1000 nM.
For the compound `COc1ccc(F)cc1[C@H](Cn1c(=O)n(C2CCN(C)C2=O)c(=O)c2c(C)c(-n3nccn3)sc21)OC1CCOCC1` (stereo partly drawn) [Compound I-10, 1-((R)-2-(5-fluoro-2-methoxyphenyl)-2-((tetrahydro-2H-pyran-4-yl)oxy)ethyl)-5-methyl-3-(1-methyl-2-oxopyrrolidin-3-yl)-6-(2H-1,2,3-triazol-2-yl)thieno[2,3-d]pyrimidine-2,4(1H,3H)-dione], the MIC (in the assay on C. krusei ATCC 6258; in assay [1]) was 0.25 to 1 µg/mL (≈ 0.418 to 1.67 µM) throughout. Besides, the IC50 at Human ACC2 is 2 to 10 nM; on Fungal ACC2, 0.7 to 2 nM.
Consider `COCCO[C@@H](Cn1c(=O)n([C@]2(C)CCN(C)C2=O)c(=O)c2c(C)c(-n3nccn3)sc21)c1cc(F)ccc1OC` [Compound I-146, 3-((R)-1,3-dimethyl-2-oxopyrrolidin-3-yl)-1-((R)-2-(5-fluoro-2-methoxyphenyl)-2-(2-methoxyethoxy)ethyl)-5-methyl-6-(2H-1,2,3-triazol-2-yl)thieno[2,3-d]pyrimidine-2,4(1H,3H)-dione], for which the IC50 against Human ACC2 and at Fungal ACC2 was above 1000 nM throughout.
As to `COc1ccc(F)cc1[C@H](Cn1c(=O)n([C@@H]2CCN(C)C2=O)c(=O)c2c(C)c(-c3ncco3)sc21)O[C@H]1CC[C@@H](O)CC1` [Compound I-193, 1-((R)-2-(5-fluoro-2-methoxyphenyl)-2-(((1 s, 4S)-4-hydroxycyclohexyl)oxy)ethyl)-5-methyl-3-((R)-1-methyl-2-oxopyrrolidin-3-yl)-6-(oxazol-2-yl)thieno[2,3-d]pyrimidine-2,4(1H,3H)-dione], the IC50 was in the range of 2 to 10 nM at Human ACC2 and 0.7 to 2 nM on Fungal ACC2.
Consider `COCCO[C@@H](Cn1c(=O)n([C@]2(C)CCNC2=O)c(=O)c2c(C)c(-n3nccn3)sc21)c1cc(F)ccc1OC` [Compound I-140, 1-((R)-2-(5-fluoro-2-methoxyphenyl)-2-(2-methoxy-ethoxy)ethyl)-5-methyl-3-((R)-3-methyl-2-oxopyrrolidin-3-yl)-6-(2H-1,2,3-triazol-2-yl)thieno[2,3-d]pyrimidine-2,4(1H,3H)-dione], for which the IC50 against Human ACC2 and at Fungal ACC2 was above 1000 nM throughout.
Consider `COc1ccc(F)cc1[C@H](Cn1c(=O)n([C@H]2CCN(C)C2=O)c(=O)c2c(C)c(-c3ncco3)sc21)O[C@H]1CC[C@@H](O)CC1` [Compound I-194, 1-((R)-2-(5-fluoro-2-methoxyphenyl)-2-(((1 s, 4S)-4-hydroxycyclohexyl)oxy)ethyl)-5-methyl-3-((S)-1-methyl-2-oxopyrrolidin-3-yl)-6-(oxazol-2-yl)thieno[2,3-d]pyrimidine-2,4(1H,3H)-dione], for which the IC50 at Human ACC2 lay in the range of 2 to 10 nM; on Fungal ACC2, 0.7 to 2 nM.

What is called MIC is the smallest concentration in the dilution series that meets the test's criterion for growth inhibition. In general, IC50 refers to the concentration needed to halve the response being measured.
